The results in this text go back to the supplement of paper PMC11616607.

One experiment deals with Ovsaho. The experiment can be described thus: drug sensitivity score (DSS) from 5-point dose-response viability curve (DSS (area-under-curve based score)); higher = more sensitive (stronger growth inhibition or killing); extreme values may be limits of the assay. To be noted: exposure time: 72 h; concentration range: 5 concentrations over 10,000-fold range. The method, boiled down: (§1)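 Ovarian cancer and normal ovarian cell lines were tested in 384-well plates. Drugs were acoustically dispensed (Echo 550) in DMSO or water at five concentrations spanning a 10,000-fold range, then 1,500 cells per well were added and incubated 3 days at 37°C, 5% CO2. Viability was read by CellTiter-Glo luminescence on a PHERAstar FS. Drug sensitivity score was derived per cell line and drug with Breeze software; higher means more sensitive, zero means no response.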
As for `CCCCCOC(=O)Nc1nc(=O)n([C@@H]2O[C@H](C)[C@@H](O)[C@H]2O)cc1F` [Capecitabine], the drug sensitivity score came to 0.
Same read-out and setting: the same measure for `COc1ccc2[nH]cc(/C=C3\C(=O)Nc4ccc(NC(=O)CCN5CCCCC5)cc43)c2c1`: 4.6.
Same read-out and setting: next, `CNC(=O)c1nn(C)c2c1C(C)(C)Cc1cnc(Nc3ccc(N4CCN(C)CC4)cc3)nc1-2` [Milciclib]: 10.7; `C[C@H]1C[C@@H]2[C@H]([C@@H](O)C[C@@]3(C)[C@H]2CC[C@]3(O)C(=O)CO)[C@@]2(C)C=CC(=O)C=C12` [Methylprednisolone]: 1.
For `CCc1c(C(=O)C(N)=O)c2c(OCC(=O)O)cccc2n1Cc1ccccc1` [Varespladib], the drug sensitivity score was 0.
Regarding `Cc1ccc(C(=O)Nc2ccc(Oc3cc4cnn(C)c4cc3-c3cn[nH]c3)c(F)c2)c(=O)n1-c1ccc(F)cc1` [Merestinib], the drug sensitivity score worked out at 0.
In turn, `Clc1ccccc1C(c1ccccc1)(c1ccccc1)n1cccn1` [TRAM-34] yielded a drug sensitivity score of 0.
In the case of `Cc1cc(Nc2cc(N3CCN(C)CC3)nc(/C=C/c3ccccc3)n2)n[nH]1` [ENMD-2076], the drug sensitivity score is 8.8.
Still for that read-out and setting: the same measure for `O=C(Nc1cccc(Nc2ncc(Br)c(NCCc3cnc[nH]3)n2)c1)N1CCCC1` [BX-912]: 3.5; for `COc1cc(OC)c(/C=C/S(=O)(=O)Cc2ccc(OC)c(NCC(=O)O)c2)c(OC)c1` [Rigosertib]: 18.9.
Same read-out and setting: next, `CCS(=O)(=O)c1cccc(-c2cc(C(=O)NC3CCN(C)CC3)c(C)c3[nH]c4ncc(C)cc4c23)c1` [TAK-901]: 7.5; `CC(C)NC(=O)COc1cccc(-c2nc(Nc3ccc4[nH]ncc4c3)c3ccccc3n2)c1` [KD025]: 1.9.
In the case of `COc1cccc(-c2ccc(NC(=O)C3=C(C(=O)O)CCC3)c(F)c2)c1` [Vidofludimus], the drug sensitivity score is 0.2.
Same read-out and setting: next, `C=CCN(/C=C1/C(=O)O[C@H](COC)[C@@]2(C)C1=C(O)C(=O)C1=C2[C@H](OC(C)=O)C[C@]2(C)C(=O)CC[C@@H]12)CC=C` [Sonolisib]: 0; `C=C(c1ccc(C(=O)O)cc1)c1cc2c(cc1C)C(C)(C)CCC2(C)C` [Bexarotene]: 0; `CC1CCC(n2c3cnccc3c3cnc(Nc4ccc5c(n4)CCN(C(=O)CO)C5)nc32)CC1` (configuration not stated) [AMG-925]: 0.1.

For a further experiment, the system named is OVCAR8. The description is as above. To be noted: exposure time: 72 h; concentration range: 5 concentrations over 10,000-fold range. The gist of the method:
as §1
For `C[C@@]1(C(=O)Nc2ccc(F)nc2)CCCN1c1nc(Nc2cc(C3CC3)n[nH]2)c2cccn2n1`, the drug sensitivity score worked out at 5.2.
For `Nc1nc2[nH]cc(CCc3ccc(C(=O)N[C@@H](CCC(=O)O)C(=O)O)cc3)c2c(=O)[nH]1` [Pemetrexed], the drug sensitivity score was determined as 18.2.
Still for that read-out and setting: the same measure for `CCC(C)n1ncn(-c2ccc(N3CCN(c4ccc(OCC5COC(Cn6cncn6)(c6ccc(Cl)cc6Cl)O5)cc4)CC3)cc2)c1=O` (configuration not stated) [Itraconazole]: 1.9; for `NCC(=O)Nc1ccc(-n2nc(C(F)(F)F)cc2-c2ccc3c(ccc4ccccc43)c2)cc1`: 2.7; for `O=C1CN2Cc3c(ccc(Cl)c3Cl)N=C2N1` [Anagrelide]: 0.
Molecule `CN1CCC(COc2cnc(-c3cccc(Cn4nc(-c5cccc(C#N)c5)ccc4=O)c3)nc2)CC1` [Tepotinib] registered a drug sensitivity score of 0.
For the molecule `Cc1cc2c(F)c(Oc3ncnn4cc(OC[C@@H](C)O)c(C)c34)ccc2[nH]1` [Brivanib], the drug sensitivity score amounted to 0.
The molecule `COc1cc2c(NC3CCN(C(C)C)CC3)nc(N3CCC(F)(F)CC3)nc2cc1OCCCN1CCCC1` [UNC0642] came in with a drug sensitivity score of 0.7.
`Nc1ccn([C@@H]2O[C@H](CO)[C@@H](O)C2(F)F)c(=O)n1` [Gemcitabine] yielded a drug sensitivity score of 23.6.
In the case of `Cc1ccc(C(=O)Nc2ccc(CN3CCN(C)CC3)c(C(F)(F)F)c2)cc1C#Cc1cnc2cccnn12` [Ponatinib], the drug sensitivity score worked out at 3.3.
Same read-out and setting: the same measure for `Oc1ccc2c(c1)CC[C@H](c1ccccc1)[C@@H]2c1ccc(OCCN2CCCC2)cc1` [Lasofoxifene]: 0; for `NCCNc1ccc(NCCN)c2c1C(=O)c1ccncc1C2=O` [Pixantrone]: 0.4.
Still for that read-out and setting: the same measure for `COc1cc(Nc2ncc(F)c(Nc3ccc4c(n3)N(COP(=O)(O)O)C(=O)C(C)(C)O4)n2)cc(OC)c1OC` [Fostamatinib]: 0.3.
Same read-out and setting: the same measure for `C=CC(=O)Nc1cccc(Nc2nc(Nc3ccc(N4CCN(C(C)=O)CC4)cc3OC)ncc2C(F)(F)F)c1` [Rociletinib]: 5.8.
Regarding `O=C(O)c1ccc(O)c2ncccc12` [IOX-1], the drug sensitivity score stood at 3.
Still for that read-out and setting: the same measure for `CCCCCOC(=O)Nc1nc(=O)n([C@@H]2O[C@H](C)[C@@H](O)[C@H]2O)cc1F` [Capecitabine]: 0; for `COc1ccc2[nH]cc(/C=C3\C(=O)Nc4ccc(NC(=O)CCN5CCCCC5)cc43)c2c1`: 8.8; for `CNC(=O)c1nn(C)c2c1C(C)(C)Cc1cnc(Nc3ccc(N4CCN(C)CC4)cc3)nc1-2` [Milciclib]: 6.2.
The molecule `C[C@H]1C[C@@H]2[C@H]([C@@H](O)C[C@@]3(C)[C@H]2CC[C@]3(O)C(=O)CO)[C@@]2(C)C=CC(=O)C=C12` [Methylprednisolone] registered a drug sensitivity score of 0.2.
In the case of `CCc1c(C(=O)C(N)=O)c2c(OCC(=O)O)cccc2n1Cc1ccccc1` [Varespladib], the drug sensitivity score was determined as 0.
On the same count and under the same terms, next, `Cc1ccc(C(=O)Nc2ccc(Oc3cc4cnn(C)c4cc3-c3cn[nH]c3)c(F)c2)c(=O)n1-c1ccc(F)cc1` [Merestinib]: 0.1.
On the same count and under the same terms, the same measure for `Clc1ccccc1C(c1ccccc1)(c1ccccc1)n1cccn1` [TRAM-34]: 0; for `Cc1cc(Nc2cc(N3CCN(C)CC3)nc(/C=C/c3ccccc3)n2)n[nH]1` [ENMD-2076]: 8; for `O=C(Nc1cccc(Nc2ncc(Br)c(NCCc3cnc[nH]3)n2)c1)N1CCCC1` [BX-912]: 4.7.
For the molecule `COc1cc(OC)c(/C=C/S(=O)(=O)Cc2ccc(OC)c(NCC(=O)O)c2)c(OC)c1` [Rigosertib], the drug sensitivity score came out at 25.4.
Still for that read-out and setting: the same measure for `CCS(=O)(=O)c1cccc(-c2cc(C(=O)NC3CCN(C)CC3)c(C)c3[nH]c4ncc(C)cc4c23)c1` [TAK-901]: 2.8; for `CC(C)NC(=O)COc1cccc(-c2nc(Nc3ccc4[nH]ncc4c3)c3ccccc3n2)c1` [KD025]: 8.2; for `COc1cccc(-c2ccc(NC(=O)C3=C(C(=O)O)CCC3)c(F)c2)c1` [Vidofludimus]: 2.1.
The same measure, in the same setting: the same measure for `C=CCN(/C=C1/C(=O)O[C@H](COC)[C@@]2(C)C1=C(O)C(=O)C1=C2[C@H](OC(C)=O)C[C@]2(C)C(=O)CC[C@@H]12)CC=C` [Sonolisib]: 0.
`C=C(c1ccc(C(=O)O)cc1)c1cc2c(cc1C)C(C)(C)CCC2(C)C` [Bexarotene] returned a drug sensitivity score of 0.1.
Same read-out and setting: next, `CC1CCC(n2c3cnccc3c3cnc(Nc4ccc5c(n4)CCN(C(=O)CO)C5)nc32)CC1` (configuration not stated) [AMG-925]: 0.
